Assay [1] in a line: Inhibition of CXCR2-mediated chemotaxis in Ba/F3 cells expressing human CXCR2.
The nature of assay [2]: Inhibition of CXCR1-mediated chemotaxis in Ba/F3 cells expressing human CXCR1.

On to `CC[C@@H](Nc1c(Nc2cccc(C(=O)N(C)C)c2O)c(=O)c1=O)c1cc(Br)co1` [(R)-3-(2-(1-(4-bromofuran-2-yl)propylamino)-3,4-dioxocyclobut-1-enylamino)-2-hydroxy-N,N-dimethylbenzamide], for which the IC50 in assay [1] amounted to 2 nM; in assay [2], 917 nM. `CC[C@@H](Nc1c(Nc2cccc(C(=O)N(C)C)c2O)c(=O)c1=O)c1cc(C)on1` [(R)-2-hydroxy-N,N-dimethyl-3-(2-(1-(5-methylisoxazol-3-yl)propylamino)-3,4-dioxocyclobut-1-enylamino)benzamide] had a half-inhibitory concentration (IC50) in assay [1] of 12.2 nM. Turning to `CC[C@@H](Nc1c(Nc2cccc(C(=O)N(C)C)c2O)c(=O)c1=O)c1ccccn1` [(R)-3-(3,4-dioxo-2-(1-(pyridin-2-yl)propylamino)cyclobut-1-enylamino)-2-hydroxy-N,N-dimethylbenzamide], the IC50 in assay [1] was 4.5 nM.

The values above are taken from BindingDB's records for doi:10.1016/j.bmcl.2008.01.024 (Schering-Plough Research Institute, 2008).
